In patent US8841288B2, “Quinolin-4 (1H)-one derivatives as inhibitors of phosphatidylinositol 3-kinases” (Universtà Degli Studi di Torino, priority 2010, dated 2014):

Target: p110α (Homo sapiens (Human), UniProt P42336)
Assay: PI3K lipid kinase activity on lipid micelles (ADP-Glo), p110α
Type: biochemical
Conditions: 10 μM ATP
Description: a) Some compounds of formula (I) described herein were assayed in vitro for their ability to inhibit the lipid kinase activity of PI3Ks, by using a non-radioactive method.
In details, His and GST-tagged recombinant proteins (purchased from JenaBioscience—Germany; PI3Kα #PR-335, PI3Kβ #PR-344, PI3Kγ #PR-343, PI3Kδ #PR-345) for each isoform PI3Kα, β, γ and δ, were incubated with 10 μM of ATP, with lipid micells containg the appropriate substrate phosphatidylinositol and the phosphatidilserine, and different concentrations of the formula (I) compounds.
After 30 minutes of incubation at room temperature, the amount of ADP produced from ATP following the activation of kinase was measured with a luminescent kinase assay, ADP-Glo™ Kinase Assay (purchased from Promega—USA #V9101).
The luminescent signal positively correlates with the formed ADP and, therefore, with the kinase activity.
Inhibition of PI3K lipid kinase activity is achieved when the amount of ADP—that is correlated with the PI3K activity—in the presence of the assayed compound of formula (I) is lower than the amount detected in the control samples.
For each assayed formula (I) compound, a specific IC50 for each class I PI3K isoform was measured.
The IC50 of a formula (I) compound is the concentration of the compound able to inhibit by 50% the kinase activity of each PI3K isoform.
The IC50 was determined by constructing a dose-response curve and examining the inhibitory effect of different concentrations of the assayed formula (I) compounds on the ADP production.
To evaluate the ability of each compound of formula (I) to inhibit the lipid kinase activity of each PI3K isoform, PI3Kα, β, γ and δ recombinant proteins (30 ng for each assay) were incubated for about 30 minutes with different concentrations of compounds.
Lipid micelles were formed by sonicating a mixture of 1 mg of phosphatidylinositol and 1 mg of phosphatidylserine. Lipid micelles were use as substrate for the PI3K lipid kinase activity. The reaction was started by adding 10 μM of ATP and 10 μM of micelles to each reaction.
After 30 minutes of incubation at room temperature, the reaction was stopped and the amount of ADP produced was measured by using the ADP-glo assay (see above).

Sequence of p110α (P42336 whole entry): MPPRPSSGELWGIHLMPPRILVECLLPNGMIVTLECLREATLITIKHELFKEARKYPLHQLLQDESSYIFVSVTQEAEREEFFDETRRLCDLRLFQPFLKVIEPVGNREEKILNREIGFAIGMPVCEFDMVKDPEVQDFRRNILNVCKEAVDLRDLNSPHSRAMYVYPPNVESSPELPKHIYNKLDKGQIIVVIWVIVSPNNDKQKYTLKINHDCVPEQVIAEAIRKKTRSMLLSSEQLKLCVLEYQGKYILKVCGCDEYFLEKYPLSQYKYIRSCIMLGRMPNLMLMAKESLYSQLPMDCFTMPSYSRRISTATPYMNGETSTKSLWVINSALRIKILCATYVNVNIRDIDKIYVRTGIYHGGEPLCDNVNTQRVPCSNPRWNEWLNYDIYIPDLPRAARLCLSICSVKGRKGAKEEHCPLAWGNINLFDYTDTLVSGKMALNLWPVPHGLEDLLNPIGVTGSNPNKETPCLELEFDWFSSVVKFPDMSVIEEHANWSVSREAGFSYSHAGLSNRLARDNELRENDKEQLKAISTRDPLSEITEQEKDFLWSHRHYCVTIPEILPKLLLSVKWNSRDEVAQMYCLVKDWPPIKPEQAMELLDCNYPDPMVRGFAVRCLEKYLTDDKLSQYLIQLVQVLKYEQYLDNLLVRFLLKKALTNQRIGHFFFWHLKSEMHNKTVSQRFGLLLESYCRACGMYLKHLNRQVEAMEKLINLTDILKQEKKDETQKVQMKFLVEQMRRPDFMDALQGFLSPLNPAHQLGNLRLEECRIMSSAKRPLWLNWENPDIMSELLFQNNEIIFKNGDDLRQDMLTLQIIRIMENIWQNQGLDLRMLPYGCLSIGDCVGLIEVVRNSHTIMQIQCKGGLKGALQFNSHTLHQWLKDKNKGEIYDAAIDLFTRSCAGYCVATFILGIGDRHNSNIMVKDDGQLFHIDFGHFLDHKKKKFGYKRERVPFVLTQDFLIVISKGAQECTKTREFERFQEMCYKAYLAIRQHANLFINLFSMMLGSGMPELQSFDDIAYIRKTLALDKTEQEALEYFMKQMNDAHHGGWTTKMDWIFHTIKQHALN
Sequence of p110α (P27986 whole entry partner): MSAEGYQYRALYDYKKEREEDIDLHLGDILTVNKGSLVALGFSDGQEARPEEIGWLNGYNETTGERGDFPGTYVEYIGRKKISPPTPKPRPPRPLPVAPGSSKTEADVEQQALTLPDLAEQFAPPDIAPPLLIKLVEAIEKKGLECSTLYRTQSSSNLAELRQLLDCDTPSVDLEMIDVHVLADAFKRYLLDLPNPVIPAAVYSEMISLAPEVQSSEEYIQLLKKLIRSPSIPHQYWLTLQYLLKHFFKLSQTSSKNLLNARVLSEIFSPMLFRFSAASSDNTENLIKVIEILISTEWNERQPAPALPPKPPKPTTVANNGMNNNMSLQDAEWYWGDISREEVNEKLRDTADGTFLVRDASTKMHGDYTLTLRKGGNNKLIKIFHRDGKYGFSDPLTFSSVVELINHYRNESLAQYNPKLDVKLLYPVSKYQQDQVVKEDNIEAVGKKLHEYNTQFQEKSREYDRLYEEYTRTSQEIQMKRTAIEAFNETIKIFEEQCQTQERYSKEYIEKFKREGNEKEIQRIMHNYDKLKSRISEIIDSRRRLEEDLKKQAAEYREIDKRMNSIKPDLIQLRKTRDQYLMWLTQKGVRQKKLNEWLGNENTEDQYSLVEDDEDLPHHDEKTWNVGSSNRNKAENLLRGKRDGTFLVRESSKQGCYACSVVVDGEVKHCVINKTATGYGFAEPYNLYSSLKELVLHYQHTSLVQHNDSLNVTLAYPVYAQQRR

Going from `O=c1cc(N2CCOCC2)[nH]c2c(-c3cn(-c4ccccc4)nn3)cccc12` [CL1, 2-morpholino-8-(1-phenyl-1h-1,2,3-triazol-4-yl)quinolin-4(1H)-one] to `O=c1cc(N2CCOCC2)[nH]c2c(-c3cn(-c4ccccc4O)nn3)cccc12` [TP714, 8-(1-(2-hydroxyphenyl)-1H-1,2,3-triazol-4-yl)-2-morpholinoquinolin-4(1H)-one], the IC50 falls from 0.73 µM to 0.26 µM (2.8-fold).

First: O=c1cc(N2CCOCC2)[nH]c2c(-c3cn(Cc4ccccc4)nn3)cccc12 [CL5, 8-(1-benzyl-1H-1,2,3-triazol-4-yl)-2-morpholinoquinolin-4(1H)-one]
Second: O=C(O)c1cccc(Cn2cc(-c3cccc4c(=O)cc(N5CCOCC5)[nH]c34)nn2)c1 [CL27e, 3-((4-(2-morpholino-4-oxo-1,4-dihydroquinolin-8-yl)-1H-1,2,3-triazol-1-yl)methyl)benzoic acid]
The IC50 of the first is 13-fold higher: 0.26 µM for the first, 0.02 µM for the second. The second is the more potent here.

First: N#CCc1ccc(-n2cc(-c3cccc4c(=O)cc(N5CCOCC5)[nH]c34)nn2)cc1 [CL12, 2-(4-(4-(2-morpholino-4-oxo-1,4-dihydroquinolin-8-yl)-1H-1,2,3-triazol-1-yl)phenyl) acetonitrile]
Second: O=C(O)c1ccc(-n2cc(-c3cccc4c(=O)cc(N5CCOCC5)[nH]c34)nn2)cc1 [CL29a, 4-(4-(2-morpholino-4-oxo-1,4-dihydroquinolin-8-yl)-1H-1,2,3-triazol-1-yl)benzoic acid]
The IC50 of the first is 3.2-fold lower: 0.1 µM for the first, 0.32 µM for the second.

`O=C(O)CCCn1cc(-c2cccc3c(=O)cc(N4CCOCC4)[nH]c23)nn1` [CL55a, 4-(4-(2-morpholino-4-oxo-1,4-dihydroquinolin-8-yl)-1H-1,2,3-triazol-1-yl)butanoic acid] and `O=C(O)CCCCn1cc(-c2cccc3c(=O)cc(N4CCOCC4)[nH]c23)nn1` [CL64a, 5-(4-(2-morpholino-4-oxo-1,4-dihydroquinolin-8-yl)-1H-1,2,3-triazol-1-yl)pentanoic acid] are the same in IC50: 0.1 µM for the first, 0.1 µM for the second.

`O=C(O)c1cccc(-n2cc(-c3cccc4c(=O)cc(N5CCOCC5)[nH]c34)nn2)c1` [CL55b, 3-(4-(2-morpholino-4-oxo-1,4-dihydroquinolin-8-yl)-1H-1,2,3-triazol-1-yl)benzoic acid] and `O=C(NCc1ccccc1)c1cccc(Cn2cc(-c3cccc4c(=O)cc(N5CCOCC5)[nH]c34)nn2)c1` [CL129a, N-benzyl-3-((4-(2-morpholino-4-oxo-1,4-dihydroquinolin-8-yl)-1H-1,2,3-triazol-1-yl)methyl) benzamide] are within 1.5-fold of each other in IC50: 0.1 µM for the first, 0.14 µM for the second.

`Cc1cc(F)ccc1Oc1cccc2c(=O)cc(N3CCOCC3)[nH]c12` [TGX155, reference compound] showed an IC50 greater than 20 µM.
